In article PMC12067093, “Discovery and optimisation of a covalent ligand for TRIM25 and its application to targeted protein ubiquitination” (Chemical Science, 2025):

Legend:
[1] = biological target: T1, TRIM25 (full-length, His10-TRIM25) (Homo sapiens, UniProt Q14258); test: In vitro TRIM25 auto-ubiquitination time course assay; type: biochemical; details: TRIM25 4 μM pre-treated with compound 50 μM for 16 h at 4 °C, versus DMSO; assay 60 min at 30 °C
T1 construct: Full-length recombinant TRIM25 was pre-treated with either DMSO, 10 or 11; made in house; host or cells: Sf9 insect cells
T1 sequence (Q14258 whole entry): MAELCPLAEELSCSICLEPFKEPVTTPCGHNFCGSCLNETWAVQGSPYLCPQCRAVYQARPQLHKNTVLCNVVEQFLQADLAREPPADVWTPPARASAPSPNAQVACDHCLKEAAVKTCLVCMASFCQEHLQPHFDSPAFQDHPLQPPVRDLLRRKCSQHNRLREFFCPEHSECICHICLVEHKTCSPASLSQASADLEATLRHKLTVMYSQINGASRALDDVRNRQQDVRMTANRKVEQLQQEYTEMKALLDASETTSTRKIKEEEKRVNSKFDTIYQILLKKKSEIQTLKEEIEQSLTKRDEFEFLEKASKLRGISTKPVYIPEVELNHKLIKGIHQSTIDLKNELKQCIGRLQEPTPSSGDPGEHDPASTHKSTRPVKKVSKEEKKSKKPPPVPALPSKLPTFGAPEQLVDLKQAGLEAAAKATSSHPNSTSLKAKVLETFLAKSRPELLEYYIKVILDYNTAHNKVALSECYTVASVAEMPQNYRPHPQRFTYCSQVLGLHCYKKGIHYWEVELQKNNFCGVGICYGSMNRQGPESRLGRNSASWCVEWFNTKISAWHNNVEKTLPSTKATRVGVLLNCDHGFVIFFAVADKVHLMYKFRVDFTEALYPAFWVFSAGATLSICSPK
Method: 1 Glutathione reactivity assay
2 Glutathione consumption assay was outsourced to Cyprotex, where the experimental
3 procedure was optimised and performed. 10 mM DMSO stocks of fragments 1 and 2,
5 diluted with 5 mM glutathione in PBS. The reaction was shaken before incubation at
6 40 °C. The reaction mixture was analysed via UPLC-UV-MS up to eight times across
7 24 hours, compared to known reference compounds and samples of each compound
8 in distilled water. UPLC conditions: flow rate 800 µL/min on an Acquity UPLC BEH
9 C18 1.7 µm 2.1 x 50 mm column, with column temperature 37°C, monitored at 210 to
10 350 nm. Samples were run using a 2 min gradient elution from 97% mobile phase A
11 to 0% mobile phase A, where mobile phase A was 0.1% formic acid in H2O, and mobile
12 phase B was 0.1% formic acid in 100% MeCN. MS conditions: single quad, ESI+, with
13 scan range of 50 – 1000 Da. […]
15 (k) for each compound was determined from the slope of a linear regression fit for a […]
17 differential for the eight time points. t1/2 values were calculated as follows: t1/2 = 0.693/k. […]
2 indicates the sample taken prior to the addition of ATP. Samples were analysed by […]
16 added directly to the ubiquitination assay reaction mixture. Samples were analysed as […]
18 which was detected by anti-rabbit-HRP secondary antibody (Dako, P0399, 1:2000). […]
21 analysed in ImageLab (Bio-Rad). […]

live THP-1 cells = test: IA-DTB competitive chemoproteomics in live THP-1 cells, proteome-wide off-targets; type: cell-based, 9606; details: compound 50 μM, 4 h at 37 °C

With `Cc1cc(C(=O)N2CCCN(C(=O)CCl)CC2)ccc1-c1ccccc1` [Compound 10] the “rate of TRIM25 auto-ubiquitination” value [1] was “significantly increased” and the “number of other protein targets competed” value (live THP-1 cells) was 50.
`CC1Cc2ccccc2N1C(=O)C1CCCN(C(=O)CCl)C1` (stereo not drawn) [Compound 11] was tested, and the “rate of TRIM25 auto-ubiquitination” value [1] was “significantly increased”.
